Experimental data as given in ChEMBL document CHEMBL1143467, “Synthesis of potent and selective serotonin 5-HT1B receptor ligands” (Bioorg Med Chem Lett, 2005).

Assays:
[1] = target: Muscarinic acetylcholine receptor M3 (Homo sapiens, UniProt P20309); test: Affinity towards cloned Muscarinic acetylcholine receptor M3
[2] = target: 5-hydroxytryptamine receptor 1D (Homo sapiens, UniProt P28221); test: In vitro binding affinity towards cloned human 5-HT1D receptor using [3H]5-carboximidotryptamine as radioligand
[3] = target: Kappa-type opioid receptor (Homo sapiens, UniProt P41145); test: Affinity towards cloned Opioid receptor kappa 1
D(3) dopamine receptor = D(3) dopamine receptor (Homo sapiens, UniProt P35462); test: Affinity towards cloned Dopamine receptor D3
D(2) dopamine receptor = D(2) dopamine receptor (Homo sapiens, UniProt P14416); test: Affinity towards cloned Dopamine receptor D2
[4] = target: 5-hydroxytryptamine receptor 6 (Homo sapiens, UniProt P50406); test: In vitro binding affinity towards cloned human 5-HT6 receptor using [3H]5-carboximidotryptamine as radioligand
D(1A) dopamine receptor = D(1A) dopamine receptor (Homo sapiens, UniProt P21728); test: Affinity towards cloned Dopamine receptor D1
[5] = target: 5-hydroxytryptamine receptor 1B (Homo sapiens, UniProt P28222); test: In vitro binding affinity towards cloned human 5-HT1B receptor using [3H]5-carboximidotryptamine as radioligand
[6] = target: 5-hydroxytryptamine receptor 7 (Homo sapiens, UniProt P34969); test: In vitro binding affinity towards cloned human 5-HT7 receptor using [3H]5-carboximidotryptamine as radioligand
[7] = target: T1, 5-hydroxytryptamine receptor 2C (Homo sapiens, UniProt P28335); test: In vitro binding affinity towards cloned human 5-HT2C receptor using [3H]5-carboximidotryptamine as radioligand
T1 sequence (P28335 whole entry): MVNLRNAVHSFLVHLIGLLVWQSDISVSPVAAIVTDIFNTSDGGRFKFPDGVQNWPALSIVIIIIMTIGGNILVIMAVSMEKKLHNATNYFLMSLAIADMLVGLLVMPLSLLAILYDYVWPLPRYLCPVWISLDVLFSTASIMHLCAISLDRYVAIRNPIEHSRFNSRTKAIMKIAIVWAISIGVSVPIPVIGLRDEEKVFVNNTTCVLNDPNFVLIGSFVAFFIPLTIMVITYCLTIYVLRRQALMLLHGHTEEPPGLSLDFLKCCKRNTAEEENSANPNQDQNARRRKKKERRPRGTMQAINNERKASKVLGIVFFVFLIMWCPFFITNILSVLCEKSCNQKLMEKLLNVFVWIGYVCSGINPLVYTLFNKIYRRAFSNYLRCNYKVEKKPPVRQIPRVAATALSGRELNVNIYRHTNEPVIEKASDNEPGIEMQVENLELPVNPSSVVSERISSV

[8] = target: T2, Muscarinic acetylcholine receptor M4 (Homo sapiens, UniProt P08173); test: Affinity towards cloned Muscarinic acetylcholine receptor M4
T2 sequence (P08173 whole entry): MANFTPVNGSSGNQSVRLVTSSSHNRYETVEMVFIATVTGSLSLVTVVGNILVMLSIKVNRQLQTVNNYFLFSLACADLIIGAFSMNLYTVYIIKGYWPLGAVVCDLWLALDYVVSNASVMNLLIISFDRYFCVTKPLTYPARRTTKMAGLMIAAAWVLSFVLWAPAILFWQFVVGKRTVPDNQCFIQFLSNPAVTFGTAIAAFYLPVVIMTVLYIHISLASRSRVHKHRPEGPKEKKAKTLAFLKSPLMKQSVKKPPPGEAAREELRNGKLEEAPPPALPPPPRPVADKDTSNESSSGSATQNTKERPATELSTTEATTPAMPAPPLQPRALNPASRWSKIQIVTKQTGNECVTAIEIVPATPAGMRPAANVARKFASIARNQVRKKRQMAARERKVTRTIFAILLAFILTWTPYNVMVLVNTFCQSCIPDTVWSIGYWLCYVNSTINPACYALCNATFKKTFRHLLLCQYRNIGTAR

[9] = target: T3, 5-hydroxytryptamine receptor 1A (Homo sapiens, UniProt P08908); test: In vitro binding affinity towards cloned human 5-HT1A receptor using [3H]5-carboximidotryptamine as radioligand
T3 sequence (P08908 whole entry): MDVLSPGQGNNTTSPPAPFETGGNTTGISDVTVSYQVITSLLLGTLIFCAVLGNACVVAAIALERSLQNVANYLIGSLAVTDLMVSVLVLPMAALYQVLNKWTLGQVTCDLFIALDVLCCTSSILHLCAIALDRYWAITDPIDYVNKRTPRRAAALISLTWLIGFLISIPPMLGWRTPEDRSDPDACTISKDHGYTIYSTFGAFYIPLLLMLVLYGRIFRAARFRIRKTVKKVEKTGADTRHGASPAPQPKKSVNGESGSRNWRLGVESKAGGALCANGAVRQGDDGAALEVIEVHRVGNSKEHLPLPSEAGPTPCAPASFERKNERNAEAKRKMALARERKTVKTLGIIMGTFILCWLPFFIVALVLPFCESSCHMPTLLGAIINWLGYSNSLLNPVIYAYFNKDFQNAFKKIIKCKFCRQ

[10] = target: T4, Muscarinic acetylcholine receptor M1 (Homo sapiens, UniProt P11229); test: Affinity towards cloned Muscarinic acetylcholine receptor M1
T4 sequence (P11229 whole entry): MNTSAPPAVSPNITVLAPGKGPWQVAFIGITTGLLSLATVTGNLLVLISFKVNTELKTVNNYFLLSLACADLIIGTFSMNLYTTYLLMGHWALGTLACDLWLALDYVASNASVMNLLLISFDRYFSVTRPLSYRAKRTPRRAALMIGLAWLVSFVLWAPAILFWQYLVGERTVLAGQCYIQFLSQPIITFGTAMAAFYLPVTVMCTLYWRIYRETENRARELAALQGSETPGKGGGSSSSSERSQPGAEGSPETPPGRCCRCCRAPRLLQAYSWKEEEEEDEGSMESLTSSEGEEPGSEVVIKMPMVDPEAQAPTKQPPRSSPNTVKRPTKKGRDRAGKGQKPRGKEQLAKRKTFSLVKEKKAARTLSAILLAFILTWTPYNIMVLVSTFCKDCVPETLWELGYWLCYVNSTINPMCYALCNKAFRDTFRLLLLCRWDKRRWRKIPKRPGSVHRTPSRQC

D(1B) dopamine receptor = D(1B) dopamine receptor (Homo sapiens, UniProt P21918); test: Affinity towards cloned Dopamine receptor D5
Chain of D(1B) dopamine receptor (P21918 whole entry): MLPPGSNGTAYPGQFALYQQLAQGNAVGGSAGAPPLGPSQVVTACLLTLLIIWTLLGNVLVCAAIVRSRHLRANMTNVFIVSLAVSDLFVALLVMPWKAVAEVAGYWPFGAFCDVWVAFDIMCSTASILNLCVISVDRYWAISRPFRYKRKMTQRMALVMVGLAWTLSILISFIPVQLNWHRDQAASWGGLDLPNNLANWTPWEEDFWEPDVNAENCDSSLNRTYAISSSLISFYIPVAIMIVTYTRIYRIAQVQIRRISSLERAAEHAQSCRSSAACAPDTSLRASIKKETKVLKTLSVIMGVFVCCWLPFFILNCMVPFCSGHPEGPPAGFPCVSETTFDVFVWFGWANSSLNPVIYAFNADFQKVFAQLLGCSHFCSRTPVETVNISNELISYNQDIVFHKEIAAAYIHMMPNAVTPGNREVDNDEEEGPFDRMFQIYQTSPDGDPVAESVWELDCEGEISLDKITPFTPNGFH

Chain of 5-hydroxytryptamine receptor 6 (P50406 whole entry): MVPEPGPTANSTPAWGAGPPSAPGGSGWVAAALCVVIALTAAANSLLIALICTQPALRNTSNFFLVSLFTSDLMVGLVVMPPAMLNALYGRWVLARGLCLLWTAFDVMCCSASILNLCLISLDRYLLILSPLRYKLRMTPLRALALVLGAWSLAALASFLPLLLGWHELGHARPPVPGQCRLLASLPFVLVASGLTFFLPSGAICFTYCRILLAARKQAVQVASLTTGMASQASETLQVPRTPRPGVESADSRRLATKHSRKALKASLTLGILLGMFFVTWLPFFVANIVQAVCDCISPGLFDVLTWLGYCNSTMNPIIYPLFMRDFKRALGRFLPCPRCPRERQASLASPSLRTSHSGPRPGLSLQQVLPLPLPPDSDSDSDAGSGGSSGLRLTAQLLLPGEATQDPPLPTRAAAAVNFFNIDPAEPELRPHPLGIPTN
Chain of 5-hydroxytryptamine receptor 1D (P28221 whole entry): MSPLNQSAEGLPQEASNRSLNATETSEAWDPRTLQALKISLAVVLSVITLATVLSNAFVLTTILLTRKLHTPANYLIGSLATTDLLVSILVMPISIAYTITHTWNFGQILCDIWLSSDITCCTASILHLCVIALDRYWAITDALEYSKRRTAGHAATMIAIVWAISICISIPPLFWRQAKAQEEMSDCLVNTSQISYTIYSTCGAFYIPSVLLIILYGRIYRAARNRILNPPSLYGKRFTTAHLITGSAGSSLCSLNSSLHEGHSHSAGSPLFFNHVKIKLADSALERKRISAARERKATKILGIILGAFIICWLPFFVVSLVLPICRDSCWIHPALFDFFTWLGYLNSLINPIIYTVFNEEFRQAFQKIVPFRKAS
Chain of D(3) dopamine receptor (P35462 whole entry): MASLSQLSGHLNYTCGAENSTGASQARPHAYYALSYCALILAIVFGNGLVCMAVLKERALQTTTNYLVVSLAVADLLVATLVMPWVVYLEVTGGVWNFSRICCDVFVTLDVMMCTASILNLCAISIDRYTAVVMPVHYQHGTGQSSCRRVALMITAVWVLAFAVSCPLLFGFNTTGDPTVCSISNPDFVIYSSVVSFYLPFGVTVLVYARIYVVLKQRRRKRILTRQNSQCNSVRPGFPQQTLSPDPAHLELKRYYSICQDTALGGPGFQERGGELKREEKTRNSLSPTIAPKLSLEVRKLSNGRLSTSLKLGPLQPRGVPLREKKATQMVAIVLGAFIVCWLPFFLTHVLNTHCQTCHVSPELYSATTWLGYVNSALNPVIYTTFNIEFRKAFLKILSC
Chain of D(2) dopamine receptor (P14416 whole entry): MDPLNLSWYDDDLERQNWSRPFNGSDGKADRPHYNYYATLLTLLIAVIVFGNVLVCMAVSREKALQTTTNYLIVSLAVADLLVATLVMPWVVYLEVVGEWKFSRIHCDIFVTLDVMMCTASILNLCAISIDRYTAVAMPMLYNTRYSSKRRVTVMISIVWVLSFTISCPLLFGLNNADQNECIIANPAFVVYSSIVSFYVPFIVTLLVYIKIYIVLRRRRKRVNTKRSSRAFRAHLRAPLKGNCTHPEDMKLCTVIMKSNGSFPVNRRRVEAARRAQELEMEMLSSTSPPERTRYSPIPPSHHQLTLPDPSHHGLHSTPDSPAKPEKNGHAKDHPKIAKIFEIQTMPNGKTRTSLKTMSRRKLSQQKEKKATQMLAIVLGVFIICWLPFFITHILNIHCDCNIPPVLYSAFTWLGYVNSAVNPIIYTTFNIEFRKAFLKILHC
Chain of Muscarinic acetylcholine receptor M3 (P20309 whole entry): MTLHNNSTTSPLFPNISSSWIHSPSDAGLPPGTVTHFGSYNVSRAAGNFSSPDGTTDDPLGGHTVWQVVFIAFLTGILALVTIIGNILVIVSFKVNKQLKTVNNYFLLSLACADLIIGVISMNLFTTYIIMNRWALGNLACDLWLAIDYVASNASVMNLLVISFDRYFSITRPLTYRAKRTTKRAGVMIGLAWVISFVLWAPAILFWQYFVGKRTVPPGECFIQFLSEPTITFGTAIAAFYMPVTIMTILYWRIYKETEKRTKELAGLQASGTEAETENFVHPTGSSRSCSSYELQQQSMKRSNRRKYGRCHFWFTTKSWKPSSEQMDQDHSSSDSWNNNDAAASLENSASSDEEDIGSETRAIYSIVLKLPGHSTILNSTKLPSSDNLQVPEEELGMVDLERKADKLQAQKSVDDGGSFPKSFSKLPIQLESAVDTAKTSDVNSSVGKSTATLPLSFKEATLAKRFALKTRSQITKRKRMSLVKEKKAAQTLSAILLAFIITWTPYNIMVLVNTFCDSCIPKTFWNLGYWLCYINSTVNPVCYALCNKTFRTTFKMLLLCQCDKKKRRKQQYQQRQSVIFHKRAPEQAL
Chain of 5-hydroxytryptamine receptor 7 (P34969 whole entry): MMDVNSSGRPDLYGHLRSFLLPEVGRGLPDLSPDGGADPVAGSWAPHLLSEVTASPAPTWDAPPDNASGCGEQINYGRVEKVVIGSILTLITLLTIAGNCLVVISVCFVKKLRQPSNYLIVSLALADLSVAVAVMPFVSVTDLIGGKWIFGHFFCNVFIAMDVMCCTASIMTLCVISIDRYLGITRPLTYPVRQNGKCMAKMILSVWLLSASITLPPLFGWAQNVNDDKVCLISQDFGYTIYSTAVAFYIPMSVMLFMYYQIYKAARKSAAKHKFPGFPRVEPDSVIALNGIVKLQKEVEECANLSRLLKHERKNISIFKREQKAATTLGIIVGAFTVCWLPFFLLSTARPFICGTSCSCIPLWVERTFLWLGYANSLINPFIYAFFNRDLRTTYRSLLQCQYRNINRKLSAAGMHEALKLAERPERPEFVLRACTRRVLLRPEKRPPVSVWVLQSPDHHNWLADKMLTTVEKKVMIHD
Chain of 5-hydroxytryptamine receptor 1B (P28222 whole entry): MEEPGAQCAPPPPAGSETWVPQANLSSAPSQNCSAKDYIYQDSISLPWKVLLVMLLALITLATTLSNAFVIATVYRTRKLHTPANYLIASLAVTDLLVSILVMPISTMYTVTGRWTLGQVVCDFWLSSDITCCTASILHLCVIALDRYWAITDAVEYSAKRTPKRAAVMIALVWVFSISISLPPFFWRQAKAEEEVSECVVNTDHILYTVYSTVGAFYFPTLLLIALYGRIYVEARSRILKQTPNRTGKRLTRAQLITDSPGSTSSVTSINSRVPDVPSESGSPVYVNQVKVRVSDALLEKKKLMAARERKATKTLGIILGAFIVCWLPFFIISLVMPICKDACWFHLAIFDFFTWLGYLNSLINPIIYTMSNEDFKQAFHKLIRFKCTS
Chain of Kappa-type opioid receptor (P41145 whole entry): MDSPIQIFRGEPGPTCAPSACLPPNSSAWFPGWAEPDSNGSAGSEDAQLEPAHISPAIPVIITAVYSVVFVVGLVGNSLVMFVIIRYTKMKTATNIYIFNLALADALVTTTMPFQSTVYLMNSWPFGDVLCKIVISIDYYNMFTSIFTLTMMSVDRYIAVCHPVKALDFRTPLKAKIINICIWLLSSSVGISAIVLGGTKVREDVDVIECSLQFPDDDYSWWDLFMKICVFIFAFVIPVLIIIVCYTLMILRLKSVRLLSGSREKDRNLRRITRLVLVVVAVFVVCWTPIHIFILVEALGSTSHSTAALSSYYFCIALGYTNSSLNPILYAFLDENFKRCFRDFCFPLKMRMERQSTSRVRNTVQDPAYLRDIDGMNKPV
Chain of D(1A) dopamine receptor (P21728 whole entry): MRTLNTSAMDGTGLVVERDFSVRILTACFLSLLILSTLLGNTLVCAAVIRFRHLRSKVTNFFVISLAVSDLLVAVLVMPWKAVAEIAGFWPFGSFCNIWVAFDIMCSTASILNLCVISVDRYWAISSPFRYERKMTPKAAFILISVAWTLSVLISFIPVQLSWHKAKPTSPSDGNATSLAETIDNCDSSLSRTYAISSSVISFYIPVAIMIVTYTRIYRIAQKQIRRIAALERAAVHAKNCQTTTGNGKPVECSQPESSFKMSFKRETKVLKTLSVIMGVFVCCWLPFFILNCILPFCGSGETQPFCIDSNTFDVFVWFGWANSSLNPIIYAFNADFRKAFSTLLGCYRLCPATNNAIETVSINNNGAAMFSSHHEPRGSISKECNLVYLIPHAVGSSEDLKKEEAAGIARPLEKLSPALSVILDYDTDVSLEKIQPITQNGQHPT

SMILES | Ki [1] [µM] | Ki [2] [µM] | Ki [3] [µM] | Ki (D(3) dopamine receptor) [µM] | Ki (D(2) dopamine receptor) [µM] | Ki [4] [µM] | Ki (D(1A) dopamine receptor) [µM] | Ki [5] [µM] | Ki [6] [µM] | Ki [7] [µM] | Ki [8] [µM] | Ki [9] [µM] | Ki [10] [µM] | Ki (D(1B) dopamine receptor) [µM]
COc1ccccc1N1CCC(C(=O)Nc2ccc(OC)c(N3CCN(C)CC3)c2)CC1 | > 10 | 0.0154 | > 10 | > 10 | > 10 |  | > 10 | 0.00968 |  | 9.95 | > 10 | 0.0154 | > 10 | > 10
COc1ccc(NC(=O)N2CCN(c3ccccc3F)CC2)cc1N1CCN(C)CC1 | > 10 | 0.103 | > 10 | > 10 | > 10 | 0.841 | > 10 | 0.0181 | > 10 | 1.08 | > 10 | 0.315 | > 10 | > 10
COc1ccc(NC(=O)N2CCN(c3ccc(-c4ccccc4)cc3)CC2)cc1N1CCN(C)CC1 | > 10 | 0.209 | > 10 | > 10 | > 10 | 1.43 | > 10 | 0.0137 | > 10 | 0.0065 | > 10 | 0.405 | > 10 | > 10
COc1ccc(NC(=O)N2CCN(c3ccccc3Cl)CC2)cc1N1CCN(C)CC1 | > 10 | 0.0347 | > 10 | > 10 | > 10 | 0.469 | > 10 | 0.0113 | 0.342 | 1.24 | > 10 | 0.335 | > 10 | > 10
COc1ccc(NC(=O)c2ccc(-c3ccc(-c4noc(C)n4)cc3C)cc2)cc1N1CCN(C)CC1 [GR-127935] | > 10 |  | > 10 | > 10 | > 10 | > 10 | > 10 | 0.00431 | > 10 | 0.105 | > 10 | 0.08 | > 10 | > 10

The next lines start with the values.

Ki [1] [µM] | Ki [2] [µM] | Ki [3] [µM] | Ki (D(3) dopamine receptor) [µM] | Ki (D(2) dopamine receptor) [µM] | Ki [4] [µM] | Ki (D(1A) dopamine receptor) [µM] | Ki [5] [µM] | Ki [6] [µM] | Ki [7] [µM] | Ki [8] [µM] | Ki [9] [µM] | Ki [10] [µM] | Ki (D(1B) dopamine receptor) [µM] | SMILES
> 10 | 0.168 | > 10 | > 10 | > 10 | > 10 | > 10 | 0.0383 | > 10 | > 10 | > 10 | 1.08 | > 10 | > 10 | COc1ccc(NC(=O)N2CCN(c3ccc(F)cc3)CC2)cc1N1CCN(C)CC1
> 10 | 0.345 | > 10 | > 10 | > 10 | 2.86 | > 10 | 0.0284 | > 10 | 2.83 | > 10 | 0.382 | > 10 | > 10 | COc1ccc(NC(=O)N2CCN(c3ccc(C(F)(F)F)cc3)CC2)cc1N1CCN(C)CC1
> 10 | 0.329 | > 10 | > 10 | > 10 | > 10 | > 10 | 0.0167 | > 10 | 1.14 | > 10 | 0.882 | > 10 | > 10 | COc1ccc(NC(=O)N2CCN(c3ccc(SC)cc3)CC2)cc1N1CCN(C)CC1
> 10 | 0.00651 | > 10 | > 10 | > 10 | 5.09 | > 10 | 0.00182 | > 10 | 0.267 | > 10 | 0.0525 | > 10 | > 10 | COc1ccc(NC(=O)N2CCN(c3ccc(Cl)cc3)CC2)cc1N1CCN(C)CC1
